The values that follow are results of earlier work, collected in patent publication EP4420767A1, “MODULAR GREEN SOLVENT COMPOSITION FOR PREPARING POLYMERIC MEMBRANES” (Soft Chemicals S.r.l., priority 2023, dated 2024).

The structures appear in SMILES notation.

The conditions of this data set: DMSO alone.

For the molecule `C[S+](C)[O-]` [DMSO, Dimethyl sulfoxide], the freezing point is 18 °C.
